According to patent publication US8344029B2, “Substituted propanamide derivative and pharmaceutical composition containing the same” (Daiichi Sankyo Company, Limited, priority 2005, dated 2013):

system: immature rats (4-week old male Wistar rats); assay: Evaluation of blood calcium concentration-decreasing activity in immature rats; type: in vivo; conditions: Rattus norvegicus; 6 hours after oral administration of 10 mg/kg, fasted 4-week old male Wistar rats, vs normal control group; read-out: serum calcium concentration-decreasing rate
Experimental: The blood calcium concentration in a living body is strictly controlled and constantly maintained by intestinal absorption and urinary excretion and release (bone resorption) and adhesion (bone formation) in bone tissues. […] The bone resorption-suppressing activity of compounds according to the present invention was evaluated by observing decreases in blood calcium concentration in immature rats administered with the compounds as an index of the activity.
The test was conducted using 4-week old male Wistar rats fasted for 12 to 24 hours. Each compound to be tested was suspended in 0.5% methyl cellulose (MC). The suspension was orally administered to the rats at a dose of 5 mL/kg. Rats of a normal control group were similarly administered with 0.5% MC alone. Then, blood was drawn from rat jugular vein under ether anesthesia 6 hours after the administration of each test compound or 0.5% MC. The blood was immediately centrifuged (10000 rpm/revolutions per minute, 5 minutes) at room temperature to separate serum. The calcium concentration of each serum was measured by an autoanalyzer (JEOL, JCA-BM2250). Five rats were used for each test group.
The evaluation was conducted by a comparative test with the normal control group based on the serum calcium concentration-decreasing rate (%) calculated according to the following equation: Serum calcium concentration-decreasing rate(%)=(([serum calcium concentration in normal control group]−[serum calcium concentration in test compound administration group]/[serum calcium concentration in normal control group])×100.

Question: `O=C(NC(Cc1ccc(OC(F)F)cc1)C(=O)NCCO)c1ccc(OCCC2CC2)cc1` (stereo not drawn) [Example 3, 4-(2-Cyclopropylethoxy)-N-{1-[4-(difluoromethoxy)benzyl]-2-[(2-hydroxyethyl)amino]-2-oxoethyl}benzamide] was tested. Which inhibition in vivo at 10 mg/kg did it give?
Answer: The inhibition in vivo at 10 mg/kg was ≥ 10%.

Question: With `O=C(NC(Cc1ccc(OC(F)(F)F)cc1)C(=O)NCCO)c1ccc(OCCC2CC2)cc1` (stereo not drawn) [Example 4, 4-(2-Cyclopropylethoxy)-N-{2-[(2-hydroxyethyl)amino]-2-oxo-1-[4-(trifluoromethoxy)benzyl]ethyl}benzamide] as the compound, how does the inhibition in vivo at 10 mg/kg read?
Answer: Its inhibition in vivo at 10 mg/kg is ≥ 10%.

Question: Which inhibition in vivo at 10 mg/kg does the source give for `O=C(NC(Cc1ccc(C(F)(F)F)cc1)C(=O)NCCO)c1ccc(OCCC2CC2)cc1` (stereo not drawn) [Example 7, 4-(2-Cyclopropylethoxy)-N-{2-[(2-hydroxyethyl)amino]-2-oxo-1-[4-(trifluoromethyl)benzyl]ethyl}benzamide] here?
Answer: Its inhibition in vivo at 10 mg/kg is ≥ 10%.

Question: For `O=C(NC(Cc1ccc(OC(F)F)cc1)C(=O)NCCO)c1ccc(OCC2CC2)cc1` (stereo not drawn) [Example 18, 4-(Cyclopropylmethoxy)-N-{1-[4-(difluoromethoxy)benzyl]-2-[(2-hydroxyethyl)amino]-2-oxoethyl}benzamide], which inhibition in vivo at 10 mg/kg is on record?
Answer: Its inhibition in vivo at 10 mg/kg is ≥ 10%.

Question: For `O=C(NC(Cc1ccc(OC(F)(F)F)cc1)C(=O)NCCO)c1ccc(OCC2CC2)cc1` (stereo not drawn) [Example 19, 4-(Cyclopropylmethoxy)-N-{2-[(2-hydroxyethyl)amino]-2-oxo-1-[4-(trifluoromethoxy)benzyl]ethyl}benzamide], which inhibition in vivo at 10 mg/kg is on record?
Answer: Its inhibition in vivo at 10 mg/kg is ≥ 10%.

Question: `O=C(NC(Cc1ccc(OC2CC2)cc1)C(=O)NCCO)c1ccc(OCC2CC2)cc1` (stereo not drawn) [Example 20, 4-(Cyclopropylmethoxy)-N-{1-[4-(cyclopropyloxy)benzyl]-2-[(2-hydroxyethyl)amino]-2-oxoethyl}benzamide] was tested. Which inhibition in vivo at 10 mg/kg did it give?
Answer: Its inhibition in vivo at 10 mg/kg is ≥ 10%.

Question: For `O=C(NC(Cc1ccc(C(F)(F)F)cc1)C(=O)NCCO)c1ccc(OCC2CC2)cc1` (stereo not drawn) [Example 22, 4-(Cyclopropylmethoxy)-N-{2-[(2-hydroxyethyl)amino]-2-oxo-1-[4-(trifluoromethyl)benzyl]ethyl}benzamide], which inhibition in vivo at 10 mg/kg is on record?
Answer: The inhibition in vivo at 10 mg/kg was ≥ 10%.

Question: `O=C(NC(Cc1ccc(C2CC2)cc1)C(=O)NCCO)c1ccc(OCC2CC2)cc1` (stereo not drawn) [Example 23, N-{1-(4-Cyclopropylbenzyl)-2-[(2-hydroxyethyl)amino]-2-oxoethyl}-4-(cyclopropylmethoxy)benzamide] was tested. Which inhibition in vivo at 10 mg/kg did it give?
Answer: Its inhibition in vivo at 10 mg/kg is ≥ 10%.

Question: Which inhibition in vivo at 10 mg/kg does the source give for `O=C(NC(Cc1ccc(OC(F)(F)F)cc1)C(=O)NCCO)c1ccc(OCCCC2CC2)cc1` (stereo not drawn) [Example 25, 4-(3-Cyclopropylpropoxy)-N-{2-[(2-hydroxyethyl)amino]-2-oxo-1-[4-(trifluoromethoxy)benzyl]ethyl}benzamide] here?
Answer: Its inhibition in vivo at 10 mg/kg is ≥ 10%.

Question: How did the inhibition in vivo at 10 mg/kg turn out when `O=C(NC(Cc1ccc(OC(F)(F)F)cc1)C(=O)NCCO)c1ccc(OCC(F)F)cc1` (stereo not drawn) [Example 31, 4-(2,2-Difluoroethoxy)-N-{2-[(2-hydroxyethyl)amino]-2-oxo-1-[4-(trifluoromethoxy)benzyl]ethyl}benzamide] was run?
Answer: The inhibition in vivo at 10 mg/kg was ≥ 10%.

Question: `O=C(NC(Cc1ccc(OC(F)(F)F)cc1)C(=O)NCCO)c1ccc(OCCC(F)(F)F)cc1` (stereo not drawn) [Example 34, N-{2-[(2-Hydroxyethyl)amino]-2-oxo-1-[4-(trifluoromethoxy)benzyl]ethyl}-4-(3,3,3-trifluoropropoxy)benzamide] was tested. Which inhibition in vivo at 10 mg/kg did it give?
Answer: The inhibition in vivo at 10 mg/kg was ≥ 10%.

Question: `O=C(NC(Cc1ccc(OC(F)(F)F)cc1)C(=O)NCCO)c1ccc(OCC2CC2(F)F)cc1` (stereo not drawn) [Example 40, 4-[(2,2-Difluorocyclopropyl)methoxy]-N-{2-[(2-hydroxyethyl)amino]-2-oxo-1-[4-(trifluoromethoxy)benzyl]ethyl}benzamide] was tested. Which inhibition in vivo at 10 mg/kg did it give?
Answer: Its inhibition in vivo at 10 mg/kg is ≥ 10%.

Question: `O=C(NC(Cc1ccc(OC(F)(F)F)cc1)C(=O)NCCO)c1ccc(Oc2ccc(C(F)(F)F)cc2)cc1` (stereo not drawn) [Example 42, N-{2-[(2-Hydroxyethyl)amino]-2-oxo-1-[4-(trifluoromethoxy)benzyl]ethyl}-4-[4-(trifluoromethyl)phenoxy]benzamide] was tested. Which inhibition in vivo at 10 mg/kg did it give?
Answer: The inhibition in vivo at 10 mg/kg was ≥ 10%.

system: adjuvant arthritis model rats (8-week old female Lewis rats); assay: Bone density decrease-suppressing activity in adjuvant arthritis model rats; type: in vivo, rat; conditions: dose 3 mg/kg, oral once a day for 7 days from day 14 after adjuvant injection; femur bone density on the 21st day
Experimental: In rheumatoid arthritis, not only swelling and pain caused by arthritis but also systemic bone mass decrease and articular destruction caused by a significant increase in bone resorption are observed.
The test was conducted using 8-week old female Lewis rats. Mycobacterium butyricum cells killed by heat were ground in an agate mortar, suspended in liquid paraffin sterilized by dry heat to a concentration of 2 mg/mL, and treated with ultrasonic to prepare an adjuvant. Under ether anesthesia, rats in a control group other than a normal control group and rats in test compound administration group were intradermally injected with 0.05 mL of the adjuvant each time (0.1 mL/rat in total) at two portions of the base of the tail. Starting from 14 days after the injection of the adjuvant, each rat was orally administered with 5 mL/kg of a test compound suspended in 0.5% MC once a day for 7 days. The rats of the control group were similarly administered with 0.5% MC alone. On the 21st day after the adjuvant injection, the femur was biopsied. The femur, after removing soft tissues, was sufficiently fixed, dehydrated, and dried with ethanol. The bone density of the femur was measured with a bone density analyzer (Aloka, DOS-600 EX-IIIR). Five rats were used for each group.
The evaluation was conducted by comparative tests with the normal control group and the control group based on the bone density decrease-suppressing rate (%) calculated according to the following equation: Bone density decrease-suppressing rate(%)=((1−([femur bone density in normal control group]−[femur bone density in test compound administration group]))/([femur bone density in normal control group]−[femur bone density in control group]))×100

Question: For `O=C(N[C@@H](Cc1ccc(OC(F)(F)F)cc1)C(=O)NCCO)c1ccc(OCC2CC2)cc1` [Example 51, 4-(Cyclopropylmethoxy)-N-{(1S)-2-[(2-hydroxyethyl)amino]-2-oxo-1-[4-(trifluoromethoxy)benzyl]ethyl}benzamide], which “Bone density decrease-suppressing rate (%)” value is on record?
Answer: The value was 85%.

Question: For `O=C(N[C@@H](Cc1ccc(OC(F)(F)F)cc1)C(=O)NCCO)c1ccc(OCCC(F)(F)F)cc1` [Example 57, N-{(1S)-2-[(2-Hydroxyethyl)amino]-2-oxo-1-[4-(trifluoromethoxy)benzyl]ethyl}-4-(3,3,3-trifluoropropoxy)benzamide], which “Bone density decrease-suppressing rate (%)” value is on record?
Answer: Its value is 86%.

Question: `O=C(N[C@@H](Cc1ccc(OC(F)F)cc1)C(=O)NCCO)c1ccc(OCCC(F)(F)F)cc1` [Example 59, N-{(1S)-1-[4-(Difluoromethoxy)benzyl]-2-[(2-hydroxyethyl)amino]-2-oxoethyl}-4-(3,3,3-trifluoropropoxy)benzamide] was tested. Which “Bone density decrease-suppressing rate (%)” value did it give?
Answer: Its value is 92%.

Question: For `O=C(N[C@@H](Cc1ccc(C(F)(F)F)cc1)C(=O)NCCO)c1ccc(OCCC(F)(F)F)cc1` [Example 61, N-{(1S)-2-[(2-Hydroxyethyl)amino]-2-oxo-1-[4-(trifluoromethyl)benzyl]ethyl}-4-(3,3,3-trifluoropropoxy)benzamide], which “Bone density decrease-suppressing rate (%)” value is on record?
Answer: Its value is 75%.

Question: Which “Bone density decrease-suppressing rate (%)” value does the source give for `O=C(N[C@@H](Cc1ccc(OC(F)(F)F)cc1)C(=O)NCCO)c1ccc(Oc2ccc(C(F)(F)F)cc2)cc1` [Example 64, N-{(1S)-2-[(2-Hydroxyethyl)amino]-2-oxo-1-[4-(trifluoromethoxy)benzyl]ethyl}-4-[4-(trifluoromethyl)phenoxy]benzamide] here?
Answer: Its value is 77%.
